In patent publication US10668168B2, “Method for removing weakly bound functional moieties from cell targeting conjugates” (priority 2015, dated 2020):

test system: NBD-4Py-Lx-trastuzumab conjugate; assay: Stripping efficiency of S- and N-donors: released NBD label from trastuzumab conjugate; format: physicochemical; details: agent 10 mM final, 37 °C, 30 minutes stripping
Method: The percentage of released NBD label (excitation and emission wavelength of 485 nm and 535 nm, respectively) was determined spectrophotometrically. The conjugation mixture was precipitated with 2 volume equivalents acetonitrile followed by centrifugation of the formed suspension (5 minutes, 14K rpm). By measuring the fluorescence of the supernatant, the percentage of released NBD label was determined.
NBD-4Py-Lx-Cl (133 microliters, 5 mM in 20 mM NaCl, 20 equiv.) was added to a solution of trastuzumab, used in its commercial formulation, (238 microliters, 21 mg/ml) and HEPES buffer (12.3 microliters, pH 7.47, 20 mM final concentration). The mixture was placed in a THERMOMIXER® at 37° C. for 4 hours, followed by purification using a prewashed PD10 column which was eluted with 0.9% NaCl. The purified conjugate was incubated with PBS or the S and N-donors as listed above (10 mM final concentration) in a THERMOMIXER® at 37° C. for 30 minutes. With size exclusion chromatography conjugation was clearly observed. Furthermore no aggregation was observed. The NBD/mAb ratio of all the conjugates were between 4.0 and 4.2.
The percentage of the released NBD label was determined as described in Example B.

In order of falling “Released label (%)” value:
1. O=S([O-])([O-])=S.[Na+].[Na+] [NaSTS, sodium thiosulfate]  52.4%
2. N[C@@H](CS)C(=O)O [L-cysteine]  36.4%
3. N#C[S-].[K+] [KSCN, potassium thiocyanate]  35.9%
4. CSCC[C@H](NC(C)=O)C(=O)O [N-acetyl-1-methionine]  12.2%
5. N[C@@H](Cc1c[nH]cn1)C(=O)O [Histidine]  5.9%
